Assay: Solubility in water (observation)
Type: physicochemical
Protocol: 4.0 g of levoleucovorin calcium (6.7 mmol) are suspended in 100 ml water. The slurry is heated up to about 40° C. to obtain a clear solution. 1.0 g of zinc acetate dihydrate (4.6 mmol) in 10 ml water is slowly added. A precipitate is formed immediately. After one day the precipitate is separated from the mother liquor.

Structure (SMILES): Nc1nc2c(c(=O)[nH]1)N(C=O)[C@@H](CNc1ccc(C(=O)N[C@@H](CCC(=O)[O-])C(=O)[O-])cc1)CN2.[Zn+2] [levoleucovorin zinc]
- Solubility in water: almost insoluble in water

From US9301922B1, “Stable high strength pharmaceutical composition of levoleucovorin” (APROFOL AG, priority 2013, dated 2016)
